Measured values: PMC9866728, “Dosing Methods to Enable Cell-Based In Vitro Testing of Complex Substances: A Case Study with a PAH Mixture” (Toxics, 2022)
Several values for one entry are separate records, joined by “and”; a condition that tells them apart may be missing. Identical values can stand only once. Like-named read-outs stand apart in the source and are kept apart here.

Legend:
[1] = Table S1; ref PubChem; cited from earlier work
[2] = bovine, 24 h
[3] = Loading kinetics of silicone micro-O-rings from methanol PAH solution (GC-MS/MS); format: physicochemical; conditions: for K Value: loading rate constant, one-phase association (h^-1); for K Value / Plateau Value / Y0: 10 µg/mL PAH mix in methanol; for Plateau Value: one-phase association fit of nominal Csilicone (µg/mL per Eq 1); for Y0: one-phase association fit of nominal Csilicone, 0-24 h; for Half-time Value / Span Value / Tau Value: one-phase association fit, micro-O-ring absorption
[4] = O-ring loading rate constant, larger O-rings; ref Smith et al. 2010 [24]; cited from earlier work
[5] = Recovery over time from exposure to cell culture media without cells (GC-MS/MS); format: physicochemical
[6] = Protein binding: media-dissolved fraction (FMD) and unbound fraction (FUB) in cell culture media without cells (ultracentrifugation, GC-MS/MS)
[7] = Smith et al. O-Rings; ref Smith et al. 2010 [24]; cited from earlier work
[8] = MAF (400 ng/mL each PAH), one phase decay fit of nominal recovery
[9] = MAF (400 ng/mL each PAH), one phase decay fit of nominal recovery (text: ng/mL)
[10] = O-Rings (loaded in 10 µg/mL PAH solution), one phase association fit of nominal recovery
[11] = O-Rings, one phase association fit
[12] = O-Rings, one phase association fit (desorption into media)
[13] = Solvent Extract (DMSO, 15 ng/mL each PAH), one phase decay fit of nominal recovery
[14] = Solvent Extract (DMSO, 15 ng/mL each PAH), one phase decay fit of nominal recovery (text: ng/mL)
[15] = Solvent Extract, one phase decay fit

c1ccc2c(c1)Cc1ccccc1-2 [Fluorene]
LogKow (PubChem) [1]: 4.18
ISTD Resp. Ratio (Raw Data for FMD) ([2]; 0.375 µg/mL): 0.7014
ISTD Resp. Ratio (Raw Data for FMD) ([2]; 10 µg/mL): 0.2015
K Value [3]: 26.7516
Plateau Value [3]: 0.7821
Y0 [3]: 0
Half-time Value [3]: 0.02591
Span Value [3]: 0.7821
Tau Value [3]: 0.03738
Smith et al. 2010 K Value [4]: 1.89
Y0 [5, 8]: 397.4
Plateau [5, 9]: 50.15
K ([5]; MAF, one phase decay fit): 0.7944
Span ([5]; MAF, one phase decay fit): 347.3
Tau ([5]; MAF, one phase decay fit): 1.259
Plateau [5, 10]: 2.925
Y0 [5, 10]: -0.4812
Half-time [5, 11]: 0.4551
Span [5, 11]: 3.406
Tau [5, 11]: 0.6566
K [5, 12]: 1.523
Y0 [5, 13]: 14.61
Plateau [5, 14]: 3.728
K [5, 15]: 0.435
Span [5, 15]: 10.88
Tau [5, 15]: 2.299

c1ccc2c(c1)ccc1ccccc12 [Phenanthrene]
LogKow (PubChem) [1]: 4.46
K Value [3]: 29.7306
Plateau Value [3]: 0.2434
Y0 [3]: 0
Half-time Value [3]: 0.02331
Span Value [3]: 0.2434
Tau Value [3]: 0.03364
ISTD Resp. Ratio, stock ([6]; 0.375 ug/mL DMSO extract, 1 hr exposure block, stock reference samples STOCK_R1-R3, raw GC-MS/MS response ratio to ISTD): 7.517 and 6.997 and 7.303
ISTD Resp. Ratio (Raw Data for FMD) ([6]; 0.375 ug/mL DMSO extract, 1 hr exposure, media-dissolved fraction, replicates DMSO_FMD_R1-R4, raw GC-MS/MS response ratio to ISTD): 0.8475 and 0.7152 and 0.8128 and 0.7589
ISTD Resp. Ratio (Raw Data for FUB) ([6]; 0.375 ug/mL DMSO extract, 1 hr exposure, unbound fraction, replicates DMSO_FUB_R1-R4, raw GC-MS/MS response ratio to ISTD): 0.02919 and 0.03368 and 0.0397 and 0.002786
ISTD Resp. Ratio, stock ([6]; 0.375 ug/mL DMSO extract, 24 hr exposure block, stock samples STOCK_R1-R3, GC-MS/MS area ratio to ISTD): 9.093 and 9.139 and 8.158
ISTD Resp. Ratio (Raw Data for FMD) ([6]; 0.375 ug/mL DMSO extract, 24 hr exposure, media-dissolved fraction samples, replicates DMSO_FMD_R2-R4, GC-MS/MS area ratio to ISTD): 0.2846 and 0.2622 and 0.2363
ISTD Resp. Ratio (Raw Data for FMD) ([6]; 0.375 ug/mL DMSO extract, 24 hr exposure, media-dissolved fraction, replicate DMSO_FMD_R1, raw GC-MS/MS response ratio to ISTD): 0.2681
ISTD Resp. Ratio (Raw Data for FUB) ([6]; 0.375 ug/mL DMSO extract, 24 hr exposure, unbound fraction samples, replicates DMSO_FUB_R1-R4, GC-MS/MS area ratio to ISTD): 0.01396 and 0.01643 and 0.01239 and 0.00394
ISTD Resp. Ratio (raw data for FMD) ([6]; 10 ug/mL MAF (MAF_1H_FMD), 1 hour exposure, replicates R1-R3): 58.1761 and 43.9105 and 63.6043
ISTD Resp. Ratio (raw data for FUB) ([6]; 10 ug/mL MAF (MAF_1H_FUB), 1 hour exposure, replicates R1-R3): 0.06932 and 0.09392 and 0.08269
ISTD Resp. Ratio, Raw Data for FMD (media-dissolved fraction) ([6]; 10 ug/mL MAF, 24 hour exposure, samples MAF_24H_FMD_R1-R3 (replicates), raw GC-MS/MS analyte/ISTD response ratio): 34.5977 and 34.7241 and 34.153
ISTD Resp. Ratio, Raw Data for FUB (unbound fraction) ([6]; 10 ug/mL MAF, 24 hour exposure, samples MAF_24H_FUB_R1-R3 (replicates), raw GC-MS/MS analyte/ISTD response ratio): 0.04313 and 0.02976 and 0.1769
ISTD Resp. Ratio (Raw Data for FMD) ([6]; 10 ug/mL micro-O-Rings, 1 hour exposure, media-dissolved fraction samples, replicates ORINGS_1H_FMD_R1-R3, GC-MS/MS area ratio to ISTD): 0.01581 and 0.07741 and 0.0739
ISTD Resp. Ratio (Raw Data for FUB) ([6]; 10 ug/mL micro-O-Rings, 1 hour exposure, unbound fraction samples, replicates ORINGS_1H_FUB_R1-R3, GC-MS/MS area ratio to ISTD): 0.004514 and 0.0003336 and 0.01406
ISTD Resp. Ratio (Raw Data for FMD) ([6]; 10 ug/mL micro-O-Rings, 24 hour exposure, media-dissolved fraction samples, replicate ORINGS_24H_FMD_R1, GC-MS/MS area ratio to ISTD): 0.01817
ISTD Resp. Ratio (raw data for FMD) ([6]; O-rings (ORINGS_24H_FMD), 24 hour exposure, media without cells, GC-MS/MS analyte/ISTD response ratio, replicates R2-R3): 0.001128 and 0.05584
ISTD Resp. Ratio (raw data for FUB) ([6]; O-rings (ORINGS_24H_FUB), 24 hour exposure, media without cells, GC-MS/MS analyte/ISTD response ratio, replicates R1-R3): 0.001509 and 0.006155 and 0.006123
ISTD Resp. Ratio, stock ([6]; STOCK_10_R1-R3 (replicates) of the block 10 ug/mL MAF, 24 hr exposure, raw GC-MS/MS analyte/ISTD response ratio): 241.043 and 253.185 and 249.851
ISTD Resp. Ratio (STOCK_10) ([6]; STOCK_10 reference samples of the 10 ug/mL MAF section, replicates R1-R3): 251.693 and 253.185 and 259.309
ISTD Resp. Ratio (STOCK_10) ([6]; STOCK_10 reference samples of the O-rings section, replicates R1-R3): 105.268 and 100.389 and 100.167
Smith et al. 2010 K Value [4]: 1.66
K [7]: 1.32
Y0 [5, 8]: 398.5
Plateau [5, 9]: 48.89
K ([5]; MAF, one phase decay fit): 0.9181
Span ([5]; MAF, one phase decay fit): 349.6
Tau ([5]; MAF, one phase decay fit): 1.089
Plateau [5, 10]: 0.3728
Y0 [5, 10]: -0.1954
Half-time [5, 11]: 0.1645
Span [5, 11]: 0.5682
Tau [5, 11]: 0.2373
K [5, 12]: 4.214
Y0 [5, 13]: 14.6
Plateau [5, 14]: 2.716
K [5, 15]: 0.502
Span [5, 15]: 11.89
Tau [5, 15]: 1.992
